Conditions: 101.33 kPa, Liquid; for mass density: Vibrating tube method; for viscosity: Capillary tube (Ostwald / Ubbelohde) method

CCCN.CCCN.O=S(=O)([N-]S(=O)(=O)C(F)(F)F)C(F)(F)F.[Ag+]
Conditions	mass density [kg/m3]	viscosity [mPa·s]
293 K	1637.5	–
293.2 K	–	46.09
298 K	1632	–
298.1 K	–	36
303 K	1626.3	–
303.2 K	–	31.07
308.2 K	–	27.03
313 K	1614.7	–
313.2 K	–	25.28
318.3 K	–	21.28
323 K	1603.5	–
323.2 K	–	18.21
328.2 K	–	15.85
333 K	1592.3	–
333.2 K	–	14.84

Source: the NIST ThermoML archive (doi:10.1021/je5004669)
